Data as given in patent US20260000763A1, “Methods of Manufacturing Therapeutic Cells” (The Board of Trustees of the Leland Stanford Junior …, priority 2022, published 2026).
“Also recorded” adds a separate entry of the source.

What was measured:
GD2.bbz-CAR T cells = GD2.bbz-CAR T cells manufactured in GMP-grade AIM 5 media with increasing inosine; type: cell-based
Description: FIG. 8B: Expansion rate of GD2.bbz-CAR T cells between day 3 and day 6 post-activation of CAR T cells grown in AIM 5 containing indicated concentration of inosine. N=4 donors from independent experiments.
FIG. 8C: Viability of GD2.bbz-CAR T cells cultured for 4 days in AIM 5 containing indicated concentration of inosine at day 6 post-activation. N=4 donors from independent experiments.
FIG. 8D: GD2.bbz-CAR T cells grown in media containing indicated inosine concentration between day 3 and day 8 post-activation and stimulated with 143b or Nalm6-GD2 tumor. IFNγ secretion after 24 hrs of co-culture was measured. Data are mean+s.d. of duplicate or triplicate wells. Representative of n=2 donors shown.
Next, to test this therapeutic window in the clinical context, GD2-CAR T cells were manufactured and determined to have anti-tumor activity in diffuse midline gliomas (DMGs) using GMP-grade AIM 5 media with increasing concentrations of INO (FIG. 8A).

HA-CAR T cells = experiment: Expansion of HA-CAR T cells in media with glucose and/or inosine; inosine dose response; type: cell-based, human
GD2 CAR T cells = experiment: Large-scale manufacturing of GD2.bbz CAR T cells in G-Rex system in regular or inosine media; type: cell-based
Description: Enriched CD4/CD8+ T cells from a healthy donor were cultured in regular or inosine-containing media in the G-Rex system. Cells were analyzed at days 7 post-activation. A: Scheme of the large scale experiment. B: Expansion of GD2 CAR T cells manufactured in control vs inosine-containing media. N=1 out of two donors is shown. C: Number of CAR+ T cells at the day 7 post activation. D: Viability of T cells. E: Percentage of CAR+ and CD4 vs CD8 T cells. Data from one representative donor is shown. N=2. F: Relative frequency of terminally differentiated effector (EMRA; CD45RA+ CCR7-), naïve (CD45RA+ CCR7+), central memory (CM; CD45RA-CCR7+), and effector memory (EM; CD45RA-CCR7-) cells in CD8+ control or inosine-grown GD2 CAR T cells. G: IL-2 and IFNγ secretion by CAR T cells stimulated with 143b, mg63.3 or Nalm6-GD2 tumor lines. […] P values were determined by unpaired two-tailed t-tests.
FIG. 13A-13H: Clinical scale manufacturing of clinical grade GD2-CAR T cells using media containing inosine, improves CAR product quality. A: Schematic of large-scale manufacturing of GD2.bbz-CAR+ T cells in a semi-closed G-Rex system in glucose-or inosine-containing media. 7 days post-activation, transduction efficiency, percentage of viable cells, and CD4/CD8 ratio of GD2+ cells were assessed by flow cytometry. […] B: Expansion of total viable T cells manufactured in control (black) vs. inosine (green)-containing media and (Right) corresponding number of CAR+ cells at day 7. […] C: IL-2 and IFNg secretion by CAR T cells stimulated for 24 hrs with 143b, mg63.3 or Nalm6-GD2 tumor lines. […] D: NSG mice were injected with 1×10^6 Nalm6 leukemia cells. On day 3 post-tumor injection, 2×10^6 of mock or GD2.bbz-CAR T cells manufactured in the presence of inosine or in regular media were transferred intravenously. Tumor growth was monitored by bioluminescent imaging. […] P values determined at day 43 by using Mann-Whitney test. […] E: Concentration of CD45+ T cells detected in blood of mice at D33 post-CAR T cell injection. […] F: Schematic of the experimental design. G: GD2.bbz-CAR T cells grown in media containing indicated inosine concentration between day 3 and day 10 post-activation and stimulated with 143b tumor. IL-2 and IFNg secretion after 24 hrs of co-culture was measured. Data are mean±s.d. of duplicate or triplicate wells. Representative of n=3 donors shown. […] Reprograming is due to an increase in glutaminolysis and polyamine synthesis and downregulation of CD73, FOXP3, A2aR and c-AMP response transcription factors.
In this example, the in vivo anti-tumor potency of CAR T cells manufactured in the presence or absence of inosine was assessed. In this particular example, the feasibility of manufacturing GD2 CAR T cells in inosine media in the clinical setting was assessed. 2.5×10^8 enriched CD4+ and CD8+ T cells from a healthy donor were activated with anti-CD3/CD28-coated beads and transduced using clinical grade GD2.bbz vector at MOI=10 (FIG. 6A). From day 3, T cells were continued to be cultured in regular-or inosine containing media in a semi-closed culture system using G-Rex platform. […] There was no difference in product viability (FIG. 6D), nor transduction efficiency nor CD4 vs CD8 ratio (FIG. 6E).
A total of 2.5×10^8 enriched CD4+ and CD8+ T cells from a healthy donor were activated with anti-CD3/CD28-coated beads and transduced using clinical grade GD2-CAR vector at an MOI of 10 (FIG. 13A). On day 3, T cells were maintained in standard RPMI media containing glucose or switched to inosine-containing RPMI without glucose in a semi-closed G-Rex culture platform.

CD8+ HA-CAR T cells = experiment: ATACseq chromatin accessibility of CD8+ HA- and HA-INO-CAR T cells (ChromVAR, HOMER); type: cell-based, human
Description: Concatenated samples from n=3 donors. […] (Left) Dot plots of representative donor shown.

[1] = system: HA-CAR T cells and CD19.28z-CAR T cells; experiment: Cell cycle state by BrdU and 7AAD staining; type: cell-based; conditions: day 10, vs control cells, presence or absence of glucose
Description: 9A: Schematic of the experimental design. […] Graphs represent median expression of indicated markers. […] Representative donor of n=2 donor shown. […] Data are mean+SD from triplicate wells. […] 9K: Schematic of the experimental design. […] Representative donor of n=3 donor shown. […] Representative donor of n=2 donor shown. […] (Top) Dot plots of representative donor shown. […] Representative donor of n=3 donor shown. […] N=2-4 donors from independent experiments. […] N=2-6 donors from independent experiments. […] N=2-4 donors from independent experiments. […] (Top) representative dot plots shown.
Further tested was whether similar functional enhancement occurred with INO exposure in the presence or absence of glucose by serially challenging HA-INO-CAR cells grown in the presence or absence of glucose with Nalm6-GD2. […] Decreased proliferation can be associated with induction of stemness or cells entering quiescence state.

## O=c1[nH]cnc2c1ncn2[C@@H]1O[C@H](CO)[C@@H](O)[C@H]1O [inosine, Inosine]
GD2.bbz-CAR T cells; AIM 5 with increasing INO, day 3 to day 6
  cell proliferation: significantly decreased cell proliferation
GD2.bbz-CAR T cells; AIM 5 with increasing INO, day 6
  CAR T cell viability: no significant changes
GD2.bbz-CAR T cells; challenged with 143b (low GD2) or Nalm6-GD2 (high GD2), 24 hrs
  secretion of IFNγ: increase in secretion of IFNγ
HA-CAR T cells; 0-11 mM INO in RPMI containing 11 mM glucose, without a plateau
  dose response on diminished proliferation, increased CD62L expression and increased IFNγ production: clear dose dependent effect
HA-CAR T cells; day 4 to day 10, 11 mM INO in presence or absence of 11 mM glucose, listed as INO
  expansion of HA-CAR T cells: diminished expansion; also recorded: significantly reduced expansion
GD2 CAR T cells; G-Rex, inosine media from day 3, day 7, one donor (FIG. 6B)
  total cells after expansion: 384.3×10^6 total cells
GD2 CAR T cells; day 7, INO RPMI without glucose from day 3, n=2 donors, s.e.m.
  total cell yield: 238.5×10^6+145.8
GD2 CAR T cells; day 7, inosine vs control
  CD4 vs CD8 ratio: no difference
  frequency of naive and central memory GD2 CAR T cells: higher frequency
  product viability: no difference
  transduction efficiency: no difference
CD8+ HA-CAR T cells; ChromVAR and HOMER
  accessibility of RUNT, IRF and RHD family TF binding motifs: increased accessibility
CD8+ HA-CAR T cells; D14 CD8+ cells, three individuals
  genomic regions with changed chromatin accessibility: more than 10,000 genomic regions
CD8+ HA-CAR T cells; PCA of ATACseq
  PC1 variance: 57%
[1]
  cell cycle distribution: higher proportion of cells in S/G2+M phase
